Measurements reported in patent publication US20050119304A1, “Urea derivatives” (priority 2001, published 2005).

Experiments:
human VR1 = biological target: T1, human VR1 (Homo sapiens, UniProt Q8NER1); test: Capsaicin-induced Ca2+ influx in the human VR1-transfected CHO cell line (Assay 1); format: cell-based; details: read-out: hVR1 class
T1 construct: The cloned hVR1 cDNA was constructed with pcDNA3 vector and transfected into a CHOluc9aeq cell line; expressed in transfected cells
From the text: [Measurement of Capsaicin-Induced Ca^2+ Influx in the Human VR1-Transfected CHO Cell Line] (Assay 1)
(1) Establishment of the Human VR1-CHOluc9aeq Cell Line
Human vanilloid receptor (hVR1) cDNA was cloned from libraries of axotomized dorsal root ganglia (WO2000/29577). The cloned hVR1 cDNA was constructed with pcDNA3 vector and transfected into a CHOluc9aeq cell line. The cell line contains aequorin and CRE-luciferase reporter genes as read-out signals. The transfectants were cloned by limiting dilution in selection medium (DMEM/F12. medium (Gibco BRL) supplemented with 10% FCS, 1.4 mM Sodium pyruvate, 20 mM HEPES, 0.15% Sodium bicarbonate, 100 U/ml penicillin, 100 μg/ml strept mycin, 2 mM glutamine, non-essential amino acids and 2 mg/ml G418). Ca^2+ influx was examined in the capsaicin-stimulated clones. A high responder clone was selected and used for further experiments in the project. The human VR1-CHOluc9aeq cells were maintained in the selection medium and passaged every 3-4 days at 1-2.5×10^5 cells/flask ([…]).
(2) Measurement of Ca^2+ Influx Using FDSS-3000
Human VR1-CHOluc9aeq cells were suspended in a culture medium which is the same as the selection medium except for G418 and seeded at a density of 1,000 cells per well into 384-well plates (black walled clear-base/Nalge Nunc International). Following the culture for 48 hrs the medium was changed to 2 μM Fluo-3 AM (Molecular Probes) and 0.02% Puronic F-127 in assay buffer (Hank's balanced salt solution (HBSS), 17 mM HEPES (pH7.4), 1 mM Probenecid, 0.1% BSA) and the cells were incubated for 60 min at 25° C. After washing twice with assay buffer the cells were incubated with a test compound or vehicle for 20 min at 25° C. Mobilization of cytoplasmic Ca^2+ was measured by FDSS-3000 (λex=488 nm, λem=540 nm/Hamamatsu Photonics) for 60 sec after the stimulation with 10 nM capsaicin. Integral R was calculated and compared with controls.
The data corresponds to the compounds as yielded by solid phase synthesis and thus to levels of purity of about 40 to 90%.

T1 sequence (Q8NER1 whole entry): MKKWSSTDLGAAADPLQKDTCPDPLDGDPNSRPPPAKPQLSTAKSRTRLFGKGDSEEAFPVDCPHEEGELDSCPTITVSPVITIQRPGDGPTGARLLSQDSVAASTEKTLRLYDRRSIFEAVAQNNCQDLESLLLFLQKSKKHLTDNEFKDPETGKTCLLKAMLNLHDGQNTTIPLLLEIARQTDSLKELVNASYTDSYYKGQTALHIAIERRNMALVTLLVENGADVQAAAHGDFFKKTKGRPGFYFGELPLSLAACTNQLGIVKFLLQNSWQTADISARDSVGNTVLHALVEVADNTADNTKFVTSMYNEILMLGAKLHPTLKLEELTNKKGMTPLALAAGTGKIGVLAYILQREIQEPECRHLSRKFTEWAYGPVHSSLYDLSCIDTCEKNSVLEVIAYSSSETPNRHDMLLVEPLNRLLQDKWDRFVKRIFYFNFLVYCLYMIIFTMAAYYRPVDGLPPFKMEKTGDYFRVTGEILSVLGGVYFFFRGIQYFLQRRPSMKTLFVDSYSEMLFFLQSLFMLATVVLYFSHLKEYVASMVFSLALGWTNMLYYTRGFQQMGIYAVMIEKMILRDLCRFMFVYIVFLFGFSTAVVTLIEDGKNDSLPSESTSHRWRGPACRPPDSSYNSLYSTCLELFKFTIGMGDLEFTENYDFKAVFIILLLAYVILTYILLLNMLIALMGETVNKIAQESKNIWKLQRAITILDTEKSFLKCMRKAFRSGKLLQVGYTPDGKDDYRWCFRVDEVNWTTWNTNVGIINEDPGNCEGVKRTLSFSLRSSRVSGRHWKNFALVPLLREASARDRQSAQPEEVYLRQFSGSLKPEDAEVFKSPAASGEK

| IC50 (human VR1) | melting point | Compound |
| --- | --- | --- |
| 500 to 1000 nM | 225 to 226 °C | O=C(Nc1cccc(F)c1)Nc1cccc2[nH]ccc12 [Example 90] |
| 100 to 500 nM | 247 to 248 °C | O=C(Nc1ccc(Cl)cc1)Nc1cccc2[nH]ccc12 [Example 91] |
| 100 to 500 nM | 242 to 243 °C | O=C(Nc1ccc(C(F)(F)F)cc1)Nc1cccc2[nH]ccc12 [Example 92] |
| 100 to 500 nM | 262 to 263 °C | O=C(Nc1cc(Cl)cc(Cl)c1)Nc1cccc2[nH]ccc12 [Example 93] |
| 500 to 1000 nM | 244 to 246 °C | O=C(Nc1ccccc1F)Nc1cccc2[nH]ccc12 [Example 94] |
| 100 to 500 nM | 244 to 246 °C | O=C(Nc1ccccc1Cl)Nc1cccc2[nH]ccc12 [Example 95] |
| 100 to 500 nM | 233 to 235 °C | O=C(Nc1ccc(Cl)c([N+](=O)[O-])c1)Nc1cccc2[nH]ccc12 [Example 96] |
| 500 to 1000 nM | 261 to 263 °C | O=C(Nc1cc([N+](=O)[O-])ccc1F)Nc1cccc2[nH]ccc12 [Example 97] |
| 100 to 500 nM | 248 to 251 °C | O=C(Nc1ccc(F)c([N+](=O)[O-])c1)Nc1cccc2[nH]ccc12 [Example 98] |
| 500 to 1000 nM | 190 to 192 °C | O=C(NCc1cccc(F)c1)Nc1cccc2[nH]ccc12 [Example 99] |
| 100 to 500 nM | 223 °C | Cc1ccc(CNC(=O)Nc2cccc3[nH]ccc23)cc1 [Example 100] |
| 100 to 500 nM | 237 to 238 °C | O=C(NCc1ccccc1Cl)Nc1cccc2[nH]ccc12 [Example 101] |
| 500 to 1000 nM | 201 to 202 °C | COc1ccc(CNC(=O)Nc2cccc3[nH]ccc23)cc1 [Example 102] |

Second part, the compound before the results:

| Compound | IC50 (human VR1) | melting point |
| --- | --- | --- |
| Cc1cccc(NC(=O)Nc2ccc3[nH]c(C(F)(F)F)nc3c2)c1 [Example 76] | 500 to 1000 nM | 245 to 247 °C |
| CSc1cccc(NC(=O)Nc2ccc3[nH]c(C(F)(F)F)nc3c2)c1 [Example 77] | 500 to 1000 nM | 226 to 228 °C |
| O=C(Nc1ccc(F)cc1)Nc1ccc2[nH]c(C(F)(F)F)nc2c1 [Example 78] | 500 to 1000 nM | 242 to 243 °C |
| COc1cccc(NC(=O)Nc2ccc3[nH]c(C(F)(F)F)nc3c2)c1 [Example 79] | 500 to 1000 nM | 233 to 237 °C |
| O=C(Nc1ccc(Br)cc1)Nc1ccc2[nH]c(C(F)(F)F)nc2c1 [Example 80] | 500 to 1000 nM | > 250 °C |
| O=C(Nc1ccc(Cl)c(Cl)c1)Nc1ccc2[nH]c(C(F)(F)F)nc2c1 [Example 81] | 500 to 1000 nM | 240 to 242 °C |
| CSc1ccc(NC(=O)Nc2cccc3[nH]ccc23)cc1 [Example 82] | 500 to 1000 nM | 228 to 231 °C |
| CC(=O)c1cccc(NC(=O)Nc2cccc3[nH]ccc23)c1 [Example 83] | 500 to 1000 nM | 205 to 207 °C |
| COc1ccccc1NC(=O)Nc1cccc2[nH]ccc12 [Example 84] | 500 to 1000 nM | 208 to 209 °C |
| CCOC(=O)c1cccc(NC(=O)Nc2cccc3[nH]ccc23)c1 [Example 85] | < 100 nM | 194 to 196 °C |
| O=C(Nc1ccccc1-c1ccccc1)Nc1cccc2[nH]ccc12 [Example 86] | 500 to 1000 nM | 104 to 106 °C |
| O=C(Nc1cccc(Cl)c1)Nc1cccc2[nH]ccc12 [Example 87] | 100 to 500 nM | 238 to 239 °C |
| O=C(Nc1ccc2ccccc2c1)Nc1cccc2[nH]ccc12 [Example 88] | 100 to 500 nM | 242 to 243 °C |
| O=C(NCc1ccc(Br)cc1)Nc1cccc2[nH]ccc12 [Example 89] | < 100 nM | 199 to 202 °C |
